# Results published in patent US5521196A, “5-HT1F agonists for the treatment of migraine” (Eli Lilly and Company, priority 1994, dated 1996).
# Counter-ions that a name gives are not always drawn.
# Molecular target: T1, 5-HT1F receptor (Homo sapiens, UniProt P30939)
# T1 sequence (P30939 1-366): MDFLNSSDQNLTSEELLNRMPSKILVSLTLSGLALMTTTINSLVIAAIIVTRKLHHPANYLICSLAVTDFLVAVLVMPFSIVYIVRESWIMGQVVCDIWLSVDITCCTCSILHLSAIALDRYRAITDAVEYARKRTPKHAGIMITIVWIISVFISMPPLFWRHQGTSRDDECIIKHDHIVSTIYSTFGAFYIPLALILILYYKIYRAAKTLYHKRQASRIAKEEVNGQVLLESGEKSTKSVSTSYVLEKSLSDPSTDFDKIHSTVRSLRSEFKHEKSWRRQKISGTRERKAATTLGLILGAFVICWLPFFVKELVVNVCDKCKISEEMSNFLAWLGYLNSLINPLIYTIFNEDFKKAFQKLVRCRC
# Assay: biochemical
# Conditions: Table I; displacement of 4.5-5.5 nM [3H]5-HT, 37° C., 30 minutes; read-out: 5-HT1F BINDING Ki
row,SMILES,Ki [nM]
1,"Cn1cc(CCN2CCC(c3c[nH]c4ccccc34)CC2)cn1 [Example 1, 3-<1-<2-<1-methyl-1H-pyrazol-4-yl>ethyl>-4-piperidinyl>-1H-indolehydrochloride]",5.7
2,"Cn1cc(CCN2CCC(c3c[nH]c4ccc(Cl)cc34)CC2)cn1 [Example 3, 5-chloro-3-<1-<2-<1-methyl-1H-pyrazol-4-yl>ethyl>-4-piperidinyl>-1H-indolehydrochloride]",1.7
3,"Cn1cc(CCN2CCC(c3c[nH]c4ccc(Br)cc34)CC2)cn1 [Example 4, 5-bromo-3-<1-<2-<1-methyl-1H-pyrazol-4-yl>ethyl>-4-piperidinyl>-1H-indoleoxalate]",3
4,"COc1ccc2[nH]cc(C3CCN(CCc4cnn(C)c4)CC3)c2c1 [Example 5, 5-methoxy-3-<1-<2-<1-methyl-1H-pyrazol-4-yl>ethyl>-4-piperidinyl>-1H-indoleoxalate]",9.9
5,"CC(C)n1cc(CCN2CCC(c3c[nH]c4ccccc34)CC2)cn1 [Example 6, 3-<1-<2-<1-(1-methylethyl)-1H-pyrazol-4-yl>ethyl>-4-piperidinyl>-1H-indolehydrochloride]",4.5
6,"CC(C)n1cc(CCN2CCC(c3c[nH]c4ccc(F)cc34)CC2)cn1 [Example 7, 5-fluoro-3-<1-<2-<1-(1-methylethyl)-1H-pyrazol-4-yl>ethyl>-4-piperidinyl>-1H-indole oxalate]",4.9
7,"CC(C)n1cc(CCN2CCC(c3c[nH]c4ccc(Cl)cc34)CC2)cn1 [Example 8, 5-chloro-3-<1-<2-<1-(1-methylethyl)-1H-pyrazol-4-yl>ethyl>-4-piperidinyl>-1H-indole]",4.1
8,"CC(C)n1cc(CCN2CCC(c3c[nH]c4ccc(Br)cc34)CC2)cn1 [Example 9, 5-bromo-3-<1-<2-<1-(1-methylethyl)-1H-pyrazol-4-yl>ethyl>-4-piperidinyl>-1H-indole oxalate]",5
9,"COc1ccc2[nH]cc(C3CCN(CCc4cnn(C(C)C)c4)CC3)c2c1 [Example 10, 5-methoxy-3-<1-<2-<1-(1-methylethyl)-1H-pyrazol-4-yl>ethyl>-4-piperidinyl>- 1H-indole oxalate]",6.2
10,"CCCn1cc(CCN2CCC(c3c[nH]c4ccccc34)CC2)cn1 [Example 12, 3-<1-<2-<1-propyl-1H-pyrazol-4-yl>ethyl>-4-piperidinyl>-1-H-indole oxalate]",3.3
11,"CCCn1cc(CCN2CCC(c3c[nH]c4ccc(F)cc34)CC2)cn1 [Example 13, 5-fluoro-3-<1-<2-<1-propyl-1H-pyrazol-4-yl>ethyl>-4-piperidinyl>-1H-indoleoxalate]",6
12,"CCCn1cc(CCN2CCC(c3c[nH]c4ccc(Cl)cc34)CC2)cn1 [Example 14, 5-chloro-3-<1-<2-<1-propyl-1H-pyrazol-4-yl>ethyl>-4-piperidinyl>-1H-indoleoxalate]",5.7
13,"CCCn1cc(CCN2CCC(c3c[nH]c4ccc(Br)cc34)CC2)cn1 [Example 15, 5-bromo-3-<1-<2-<1-propyl-1H-pyrazol-4-yl>ethyl>-4-piperidinyl>-1H-indoleoxalate]",6.6
14,"c1ccc2c(C3CCN(CCc4cnn(C5CCCCC5)c4)CC3)c[nH]c2c1 [Example 16, 3-<1-<2-<1-cyclohexyl-1H-pyrazol-4-yl>ethyl>-4-piperidinyl>-1H-indoleoxalate]",43.8
15,"Fc1ccc2[nH]cc(C3CCN(CCc4cnn(C5CCCCC5)c4)CC3)c2c1 [Example 17, 5-fluoro-3-<1-<2-<1-cyclohexyl-1H-pyrazol-4-yl>ethyl>-4-piperidinyl>-1H-indole oxalate]",33.2
16,Clc1ccc2[nH]cc(C3CCN(CCc4cnn(C5CCCCC5)c4)CC3)c2c1 [Example 18],34
17,Brc1ccc2[nH]cc(C3CCN(CCc4cnn(C5CCCCC5)c4)CC3)c2c1 [Example 19],49.4
18,"Fc1ccc2[nH]cc(C3CCN(CCc4cnn(CC5CC5)c4)CC3)c2c1 [Example 20, 5-fluoro-3-<1-<2-<1-cyclopropylmethyl-1H-pyrazol-4-yl>ethyl>-4-piperidinyl>-1H-indole hydrochloride]",8.9
19,"Clc1ccc2[nH]cc(C3CCN(CCc4cnn(CC5CC5)c4)CC3)c2c1 [Example 21, 5-chloro-3-<1-<2-<1-cyclopropylmethyl-1H-pyrazol-4-yl>ethyl>-4-piperidinyl>-1H-indole hydrochloride]",14.5
20,"Fc1ccc2[nH]cc(C3CCN(CCc4cnn(Cc5ccccc5)c4)CC3)c2c1 [Example 22, 5-fluoro-3-<1-<2-<1-benzyl-1H-pyrazol-4-yl>ethyl>-4-piperidinyl>-1H-indolehydrochloride]",52.5
21,"c1ccc(-n2cc(CCN3CCC(c4c[nH]c5ccccc45)CC3)cn2)cc1 [Example 23, 3-<1-<2-<1-phenyl-1H-pyrazol-4-yl>ethyl>-4-piperidinyl>-1H-indolehydrochloride]",4.3
22,"Fc1ccc2[nH]cc(C3CCN(CCc4cnn(-c5ccccc5)c4)CC3)c2c1 [Example 24, 5-fluoro-3-<1-<2-<1-phenyl-1H-pyrazol-4-yl>ethyl>-4-piperidinyl>-1H-indoleoxalate]",5.5
23,"Clc1ccc2[nH]cc(C3CCN(CCc4cnn(-c5ccccc5)c4)CC3)c2c1 [Example 25, 5-chloro-3-<1-<2-<1-phenyl-1H-pyrazol-4-yl>ethyl>-4-piperidinyl>-1H-indoleoxalate]",6.9
24,"Brc1ccc2[nH]cc(C3CCN(CCc4cnn(-c5ccccc5)c4)CC3)c2c1 [Example 26, 5-bromo-3-<1-<2-<1-phenyl-1H-pyrazol-4-yl>ethyl>-4-piperidinyl>-1H-indoleoxalate]",13.8

# Other lines, results leading:
row,Ki [nM],SMILES
1,9.5,"COc1ccc2[nH]cc(C3CCN(CCc4cnn(-c5ccccc5)c4)CC3)c2c1 [Example 27, 5-methoxy-3-<1-<2-<1-phenyl-1H-pyrazol-4-yl>ethyl>-4-piperidinyl>-1H-indoleoxalate]"
2,24,"NC(=O)c1ccc2[nH]cc(C3CCN(CCc4cnn(-c5ccccc5)c4)CC3)c2c1 [Example 28, 5-carboxamido-3-<1-<2-<1-phenyl-1H-pyrazol-4-yl>ethyl>-4-piperidinyl>-1H-indole]"
3,10.4,"Fc1ccccc1-n1cc(CCN2CCC(c3c[nH]c4ccc(Cl)cc34)CC2)cn1 [Example 29, 5-chloro-3-<1-<2-<1-(2-fluorophenyl)-1H-pyrazol-4-yl>ethyl>-4-piperidinyl>- 1H-indole]"
4,51,"Fc1cccc(-n2cc(CCN3CCC(c4c[nH]c5ccc(Cl)cc45)CC3)cn2)c1 [Example 30, 5-chloro-3-<1-<2-<1-(3-fluorophenyl)-1H-pyrazol-4-yl>ethyl>-4-piperidinyl>- 1H-indole oxalate]"
5,11.5,"Fc1ccc(-n2cc(CCN3CCC(c4c[nH]c5ccc(Cl)cc45)CC3)cn2)cc1 [Example 31, 5-chloro-3-<1-<2-<1-(4-fluorophenyl)-1H-pyrazol-4-yl>ethyl>-4-piperidinyl>- 1H-indole oxalate]"
6,44.1,"Clc1ccc2[nH]cc(C3CCN(CCc4cnn(-c5ccccc5Cl)c4)CC3)c2c1 [Example 32, 5-chloro-3-<1-<2-<1-(2-chlorophenyl)-1H-pyrazol-4-yl>ethyl>-4-piperidinyl>- 1H-indole oxalate]"
7,85.5,"Clc1cccc(-n2cc(CCN3CCC(c4c[nH]c5ccc(Cl)cc45)CC3)cn2)c1 [Example 33, 5-chloro-3-<1-<2-<1-(3-chlorophenyl)-1H-pyrazol-4-yl>ethyl>-4-piperidinyl>- 1H-indole oxalate]"
8,161,"Clc1ccc(-n2cc(CCN3CCC(c4c[nH]c5ccc(Cl)cc45)CC3)cn2)cc1 [Example 34, 5-chloro-3-<1-<2-<1-(4-chlorophenyl)-1H-pyrazol-4-yl>ethyl>-4-piperidinyl>- 1H-indole]"
9,48.4,"Clc1ccc2[nH]cc(C3CCN(CCc4cnn(-c5ccccc5Br)c4)CC3)c2c1 [Example 35, 5-chloro-3-<1-<2-<1-(2-bromophenyl)-1H-pyrazol-4-yl>ethyl>-4-piperidinyl>-1H-indole oxalate]"
10,142,"Clc1ccc2[nH]cc(C3CCN(CCc4cnn(-c5cccc(Br)c5)c4)CC3)c2c1 [Example 36, 5-chloro-3-<1-<2-<1-(3-bromophenyl)-1H-pyrazol-4-yl>ethyl>-4-piperidinyl>-1H-indole oxalate]"
11,65.6,"Clc1ccc2[nH]cc(C3CCN(CCc4cnn(-c5ccc(Br)cc5)c4)CC3)c2c1 [Example 37, 5-chloro-3-<1-<2-<1-(4-bromophenyl)-1H-pyrazol-4-yl>ethyl>-4-piperidinyl>-1H-indole]"
12,77.4,"Clc1ccc2[nH]cc(C3CCN(CCc4cnn(-c5ccc(I)cc5)c4)CC3)c2c1 [Example 38, 5-chloro-3-<1-<2-<1-(4-iodophenyl)-1H-pyrazol-4-yl>ethyl>-4-piperidinyl>-1H-indole oxalate]"
13,63.5,"COc1ccccc1-n1cc(CCN2CCC(c3c[nH]c4ccc(Cl)cc34)CC2)cn1 [Example 39, 5-chloro-3-<1-<2-<1-(2-methoxyphenyl)-1H-pyrazol-4-yl>ethyl>-4-piperidinyl>-1H-indole oxalate]"
14,12.7,"COc1ccc(-n2cc(CCN3CCC(c4c[nH]c5ccc(Cl)cc45)CC3)cn2)cc1 [Example 40, 5-chloro-3-<1-<2-<1-(4-methoxyphenyl)-1H-pyrazol-4-yl>ethyl>-4-piperidinyl>-1H-indole]"

# Same assay, conditions: read-out: 5-HT1F BINDING Ki
row,Ki [nM],SMILES
1,10.3,"CC(C)n1cc(CCN2CCC(c3c[nH]c4ccc(C(N)=O)cc34)CC2)cn1 [Example 11, 5-carboxamido-3-<1-<2-<1-(1-methylethyl)-1H-pyrazol-4-yl>ethyl>-4-piperidinyl>-1H-indole]"
